Consider 22 compounds from patent US5461036A, “Spicamycin derivatives and their use as anticancer agents” (priority 1991, dated 1995).

SMILES strings stand for the structures. Where two headings read alike, the source gives them in different places.

One series can be described thus: in vivo. Also noted: species or system nude mice (BALB/c nu/nu). The settings on record: mouse, in vivo; intravenous, continuous 5 days, nude mice; maximum dose at which no animal was dead within 2 weeks; read-out: Maximum tolerated dose. Here is the method: (1) Measurement of maximum tolerated dose (MTD) of the spicamycin derivatives in nude mice
The spicamycin derivative was dissolved in dimethylsulfoxide (DMSO) and Cremophor EL® at the same volume as DMSO was added. Physiological saline was added so that the concentration of DMSO and Cremophor EL® was finally adjusted to 1%, respectively, and thus injection liquids of spicamycin derivative in a variety of concentrations were prepared. […] The maximum dose at which no animal was dead was defined as the MTD of the respective derivatives.

Series [1] concerns human colon cancer (COL-1). The series is classed as in vivo, mouse. The following applies: for TGIR (tumor growth inhibition rate, maximum) / minTx (relative tumor volume when reduced to the minimum): COL-1 s.c. in nude mice, at MTD; for TGIR (tumor growth inhibition rate, maximum): TGIR=(1-Tx/Cx)×100, maximum during about 3 weeks; for minTx (relative tumor volume when reduced to the minimum): minimum throughout the test period. Here is the method: (2) Method for measuring the antitumor effect on human colon cancer (COL-1)
COL-1, a human colon cancer, was transplanted subcutaneously into nude mice. When the tumor had grown to a volume of about 100 mm^3, the nude mice were divided into groups of 5 animals so that the average tumor volumes of respective groups were equalized. The respective spicamycin derivatives were administered to test groups at their MTDs, while physiological saline (solvent) containing 1% DMSO and 1% Cremophor EL® was administered to the control group. […] RV is expressed as RV =Vn/Vo where Vn is the tumor volume on day n and Vo is the initial tumor volume at the time treatment was commenced.

[2] abbreviates: /minimum effective dose (effective: TGIR≥50).

With `CC(C)CCCCCCCCC(=O)NCC(=O)N[C@@H]1[C@@H](O)[C@@H](O)[C@@H](Nc2ncnc3[nH]cnc23)O[C@H]1C(O)CO` (stereo partly drawn) [SPK9, 6-[4'-N-(N'-10-methylundecanoylglycyl)spicaminyl-amino]purine], in “in vivo”, the MTD at 336 h is 6 mg/kg/day. In series [1], the “TGIR (tumor growth inhibition rate, maximum)” value worked out at 99 and the “minTx (relative tumor volume when reduced to the minimum)” value is 0.05. This compound also displayed a Therapeutic index in series [1] (mouse, in vivo) of 4.

Take `CCCCCCCCCCC/C=C/C(=O)NCC(=O)N[C@@H]1[C@@H](O)[C@@H](O)[C@@H](Nc2ncnc3[nH]cnc23)O[C@H]1C(O)CO` (stereo partly drawn) [SPK156, 6-[4'-N-(N'-trans-2-tetradecenoylglycyl)spicaminyl-amino]purine]: in “in vivo”, the MTD at 336 h was determined as 3 mg/kg/day. For the same compound, in series [1], the “TGIR (tumor growth inhibition rate, maximum)” value came to 92. Further, the Therapeutic index in series [1] (mouse, in vivo) was determined as 4.

With `O=C(CCCCCCCCCCCCl)NCC(=O)N[C@@H]1[C@@H](O)[C@@H](O)[C@@H](Nc2ncnc3[nH]cnc23)O[C@H]1C(O)CO` (stereo partly drawn) [SPK132, 6-[4'-N-(N'-12-chlorododecanoylglycyl)spicaminyl-amino]purine], the MTD at 336 h in “in vivo” was found to be 12 mg/kg/day. For the same compound, in series [1], the “TGIR (tumor growth inhibition rate, maximum)” value was 98 and the “minTx (relative tumor volume when reduced to the minimum)” value is recorded as 0.08. In series [1] (mouse, in vivo), the Therapeutic index is reported as 4.

In the case of `CCCCCCCCCCC(F)C(=O)NCC(=O)NC1C(O)C(O)C(Nc2ncnc3[nH]cnc23)OC1C(O)CO` (stereo not drawn) [SPK159, 6-[4'-N-(N'-2-fluorododecanoylglycyl)spicaminyl-amino]purine], in “in vivo”, the MTD at 336 h turned out to be 24 mg/kg/day. The “TGIR (tumor growth inhibition rate, maximum)” value in series [1] was determined as 96. Also, the Therapeutic index in series [1] (mouse, in vivo) was 4.

Take `CCCCCCCCCCCCCCC(Cl)C(=O)NCC(=O)NC1C(O)C(O)C(Nc2ncnc3[nH]cnc23)OC1C(O)CO` (stereo not drawn) [SPK135, 6-[4'-N-(N'-2-chlorohexadecanoylglycyl)spicaminylamino]purine]: the MTD at 336 h in “in vivo” was 24 mg/kg/day. In addition, the “TGIR (tumor growth inhibition rate, maximum)” value in series [1] was determined as 93. Besides, the Therapeutic index in series [1] (mouse, in vivo) was found to be 4.

In the case of `CCCCCCCC/C=C/C=C/C(=O)NCC(=O)N[C@@H]1[C@@H](O)[C@@H](O)[C@@H](Nc2ncnc3[nH]cnc23)O[C@H]1C(O)CO` (stereo partly drawn) [SPK281, 6-[4'-N-(N'-trans,trans-2,4-tridecadienoylglycyl)spicaminyl-amino]purine], the MTD at 336 h in “in vivo” was found to be 18 mg/kg/day. In addition, in series [1], the “TGIR (tumor growth inhibition rate, maximum)” value is reported as 99 and the “minTx (relative tumor volume when reduced to the minimum)” value was 0.06. Besides, the Therapeutic index in series [1] (mouse, in vivo) is reported as 8.

Take `CCCCCCCCCCC[C@H](O)CC(=O)NCC(=O)NC1C(O)C(O)C(Nc2ncnc3[nH]cnc23)OC1C(O)CO` (single isomer, unassigned) [SPK274, 6-[4'-N-(N'-(s)-3-hydroxytetradecanoylglydyl)spicaminyl-amino]purine]: the MTD at 336 h in “in vivo” was 24 mg/kg/day. In series [1], the “TGIR (tumor growth inhibition rate, maximum)” value was 92 and the “minTx (relative tumor volume when reduced to the minimum)” value was determined as 0.16. The same compound showed a Therapeutic index in series [1] (mouse, in vivo) of 4.

Consider `C=CCCCCCCCCCCC(=O)NCC(=O)N[C@@H]1[C@@H](O)[C@@H](O)[C@@H](Nc2ncnc3[nH]cnc23)O[C@H]1C(O)CO` (stereo partly drawn) [SPK142, 6-[4'-N-(N'-12-tridecenoylglycyl)spicaminyl-amino]purine], for which the MTD at 336 h in “in vivo” is 6 mg/kg/day. Also, in series [1], the “TGIR (tumor growth inhibition rate, maximum)” value came out at 99 and the “minTx (relative tumor volume when reduced to the minimum)” value is recorded as 0.09. In series [1] (mouse, in vivo), the Therapeutic index turned out to be 4.

As for `CCCC/C=C\CCCCCCCC(=O)NCC(=O)N[C@@H]1[C@@H](O)[C@@H](O)[C@@H](Nc2ncnc3[nH]cnc23)O[C@H]1C(O)CO` (stereo partly drawn) [SPK231, 6-[4,-N-(N'-cis-9-tetradecenoylglycyl)spicaminyl-amino]purine], in “in vivo”, the MTD at 336 h amounted to 6 mg/kg/day. Moreover, in series [1], the “TGIR (tumor growth inhibition rate, maximum)” value is recorded as 96 and the “minTx (relative tumor volume when reduced to the minimum)” value was found to be 0.12. In series [1] (mouse, in vivo), this compound returned a Therapeutic index of 6.

Regarding `CCCCS(=O)(=O)OCCCCCCCCCCCC(=O)NCC(=O)NC1C(O)C(O)C(Nc2ncnc3[nH]cnc23)OC1C(O)CO` (stereo not drawn) [SPK232, 6-[4'-N-(N'-12-butanesulfonyloxydodecanoylglycyl)spicaminyl-amino]purine], in “in vivo”, the MTD at 336 h is 24 mg/kg/day. Moreover, in series [1], the “TGIR (tumor growth inhibition rate, maximum)” value is reported as 96. In series [1] (mouse, in vivo), the Therapeutic index turned out to be 4.

Regarding `O=C(CCCCCCCCCCCCBr)NCC(=O)N[C@@H]1[C@@H](O)[C@@H](O)[C@@H](Nc2ncnc3[nH]cnc23)O[C@H]1C(O)CO` (stereo partly drawn) [SPK276, 6-[4'-N-(N'-13-bromotridecanoylglycyl)spicaminyl-amino]purine], in the series “in vivo”, the MTD at 336 h worked out at 12 mg/kg/day. Further, in series [1], the “TGIR (tumor growth inhibition rate, maximum)” value stood at 96 and the “minTx (relative tumor volume when reduced to the minimum)” value came to 0.16. The compound further had a Therapeutic index in series [1] (mouse, in vivo) of 8.

`CCCCCCCCCCCCC/C=C/C(=O)NCC(=O)N[C@@H]1[C@@H](O)[C@@H](O)[C@@H](Nc2ncnc3[nH]cnc23)O[C@H]1C(O)CO` (stereo partly drawn) [SPK188, 6-[4'-N-(N'-trans-2-hexadecenoylglycyl)spicaminyl-amino]purine]: the MTD at 336 h in the series “in vivo” was 0.6 mg/kg/day. For the same compound, the “TGIR (tumor growth inhibition rate, maximum)” value in series [1] was 92.

As to `O=C(CCCCCCCCC#Cc1cccs1)NCC(=O)NC1C(O)C(O)C(Nc2ncnc3[nH]cnc23)OC1C(O)CO` (stereo not drawn) [SPK262, 6-{4'-N-[N'-11-(2'-thienyl)-10-undecynoylglycyl]spicaminyl-amino}purine], in “in vivo”, the MTD at 336 h came out at 8 mg/kg/day. In addition, in series [1], the “TGIR (tumor growth inhibition rate, maximum)” value stood at 99 and the “minTx (relative tumor volume when reduced to the minimum)” value worked out at 0.03. In series [1] (mouse, in vivo), this compound yielded a Therapeutic index of 4.

With `CCCCCCCCCCCCCC(=O)NCC(=O)N[C@@H]1[C@@H](O)[C@@H](O)[C@@H](Nc2ncnc3[nH]cnc23)O[C@H]1C(O)CO` (stereo partly drawn) [SPM10, 6-[4 ,-N-(N'-tetradecanoylglycyl)spicaminyl-amino]purine], the MTD at 336 h in the series “in vivo” was found to be 2.6 mg/kg/day. The compound also gave a Therapeutic index in series [1] (setting [2]) of 4. In series [1], the “TGIR (tumor growth inhibition rate, maximum)” value is listed as 98 and the “minTx (relative tumor volume when reduced to the minimum)” value was determined as 0.10.

As for `C=CCCCCCCCCCC(=O)NCC(=O)N[C@@H]1[C@@H](O)[C@@H](O)[C@@H](Nc2ncnc3[nH]cnc23)O[C@H]1C(O)CO` (stereo partly drawn) [SPK44, 6-[4 '-N-(N'-11-dodecenoylglycyl)spicaminyl-amino]purine], the MTD at 336 h in “in vivo” was determined as 4 mg/kg/day. In series [1] (setting [2]), this compound had a Therapeutic index of 4. Besides, in series [1], the “TGIR (tumor growth inhibition rate, maximum)” value is listed as 94 and the “minTx (relative tumor volume when reduced to the minimum)” value was 0.16.

For the compound `O=C(CCCCCCCCCCOc1ccccc1)NCC(=O)NC1C(O)C(O)C(Nc2ncnc3[nH]cnc23)OC1C(O)CO` (stereo not drawn) [SPK422, 6-[4'-N-(N'-11-phenoxyundecanoylglycyl)-spicaminyl-amino]purine], the MTD at 336 h in the series “in vivo” was 3.4 mg/kg/day. Besides, the “TGIR (tumor growth inhibition rate, maximum)” value in series [1] was 95. This compound also yielded a Therapeutic index in series [1] (mouse, in vivo) of 4.

Consider `O=C(CCCCCCCCCCCCCF)NCC(=O)N[C@@H]1[C@@H](O)[C@@H](O)[C@@H](Nc2ncnc3[nH]cnc23)O[C@H]1C(O)CO` (stereo partly drawn) [SPK279, 6-[4,-N-(N,-14-fluorotetradecanoylglycyl)spicaminyl-amino]purine], for which the MTD at 336 h in the series “in vivo” turned out to be 6 mg/kg/day. In series [1], the “TGIR (tumor growth inhibition rate, maximum)” value came out at 93 and the “minTx (relative tumor volume when reduced to the minimum)” value amounted to 0.25. Besides, the Therapeutic index in series [1] (mouse, in vivo) turned out to be 8.

As for `CCCCCCCCCCCCC(=O)NCC(=O)N[C@@H]1[C@@H](O)[C@@H](O)[C@@H](Nc2ncnc3[nH]cnc23)O[C@H]1C(O)CO` (stereo partly drawn) [SPM9, 6-[4 '-N-(N'-tridecanoylglycyl)spicaminyl-amino]purine], the MTD at 336 h in “in vivo” is 3.4 mg/kg/day. Moreover, in series [1], the “TGIR (tumor growth inhibition rate, maximum)” value is listed as 99 and the “minTx (relative tumor volume when reduced to the minimum)” value worked out at 0.05. In series [1] (mouse, in vivo), this compound displayed a Therapeutic index of 6.

As to `CCCCCCCCCCC[C@@H](O)CC(=O)NCC(=O)NC1C(O)C(O)C(Nc2ncnc3[nH]cnc23)OC1C(O)CO` (stereo partly drawn) [SPK270, 6-[4'-N-(N'-(R)-3-hydroxytetradecanoylglycyl)spicaminyl-amino]purine], the MTD at 336 h in “in vivo” was determined as 12 mg/kg/day. In addition, in series [1], the “TGIR (tumor growth inhibition rate, maximum)” value is listed as 94 and the “minTx (relative tumor volume when reduced to the minimum)” value is recorded as 0.21. In series [1] (mouse, in vivo), this compound had a Therapeutic index of 4.

Consider `CCCCCCCCCCCCC(F)(F)C(=O)NCC(=O)NC1C(O)C(O)C(Nc2ncnc3[nH]cnc23)OC1C(O)CO` (stereo not drawn) [SPK182, 6-[4,-N-(N'-2,2-difluorotetradecanoylglycyl)spicaminyl-amino]purine], for which the MTD at 336 h in “in vivo” is 36 mg/kg/day. In addition, in series [1], the “TGIR (tumor growth inhibition rate, maximum)” value worked out at 90 and the “minTx (relative tumor volume when reduced to the minimum)” value is given as 0.24. In series [1] (mouse, in vivo), the Therapeutic index is listed as 8.

For `O=C(CCCCCCCCC#Cc1ccoc1)NCC(=O)NC1C(O)C(O)C(Nc2ncnc3[nH]cnc23)OC1C(O)CO` (stereo not drawn) [SPK266, 6-{4'-N-[N'-11-(3'-furyl)-10-undecynoylglycyl]spicamynyl-amino}purine], the MTD at 336 h in “in vivo” came to 12 mg/kg/day. In series [1], the “TGIR (tumor growth inhibition rate, maximum)” value came to 97 and the “minTx (relative tumor volume when reduced to the minimum)” value is 0.18. Further, the Therapeutic index in series [1] (mouse, in vivo) came out at 8.

Take `CCCCCCCCCCCCCCC(F)C(=O)NCC(=O)NC1C(O)C(O)C(Nc2ncnc3[nH]cnc23)OC1C(O)CO` (stereo not drawn) [SPK233, 6-[4'-N-(N'-2-fluorohexadecanoylglycyl)spicaminyl-amino]purine]: the MTD at 336 h in “in vivo” was 2.7 mg/kg/day. In series [1] (setting [2]), this compound displayed a Therapeutic index of 4. Further, in series [1], the “TGIR (tumor growth inhibition rate, maximum)” value came out at 96 and the “minTx (relative tumor volume when reduced to the minimum)” value is on record as 0.13.
